From patent US20240239842A1 (CHUGAI SEIYAKU KABUSHIKI KAISHA, priority 2021, published 2024)
Starred links: 1 amine or outer side, 2 acyl side, 3 side chain; linkers in the order of their positions; H or OH if unused. Positions of bridges follow the written chain, without caps; N, C: chain ends. Non-standard residues stand in square brackets, D forms with d. Residues, ends and D or L forms follow the SMILES beside them. *: point of attachment. hPhe(3-Cl-4-CF3) = N[C@@H](CCc1ccc(C(F)(F)F)c(Cl)c1)C(=O)O; X1 = CN([C@@H](CC1CCC(F)(F)CC1)C(=O)[*:2])[*:1]; NMePhe(4-Me) = CN[C@@H](Cc1ccc(C)cc1)C(=O)O; X4 = C#Cc1cccc(C[C@H](N[*:1])C(=O)[*:2])c1; X5 = O=C([C@H](Cc1cccc(F)c1F)N[*:1])[*:2]; Phe(3-I) = N[C@@H](Cc1cccc(I)c1)C(=O)O; X2 = CC(C)=CC[C@H](N[*:1])C(=O)[*:2]; NMeY = CN[C@@H](Cc1ccc(O)cc1)C(=O)O; NMeCha = CN[C@@H](CC1CCCCC1)C(=O)O; X6 = O=C(CN(CCN1CCNCC1)[*:1])[*:2]; X3 = C[C@H](CN(C)[*:1])C(=O)[*:2]; NMeChg = CN[C@H](C(=O)O)C1CCCCC1; NMeF = CN[C@@H](Cc1ccccc1)C(=O)O; Gly(cBu) = N[C@H](C(=O)O)C1CCC1; NMeD = CN[C@@H](CC(=O)O)C(=O)O; NMeL = CN[C@@H](CC(C)C)C(=O)O; NMehSer = CN[C@@H](CCO)C(=O)O; NMeV = CN[C@H](C(=O)O)C(C)C; d(β3hA) = C[C@@H](N)CC(=O)O; NMeS = CN[C@@H](CO)C(=O)O; Pip = O=C(O)[C@@H]1CCCCN1; NMeA = CN[C@@H](C)C(=O)O; NMeAib = CNC(C)(C)C(=O)O; Nle = CCCC[C@H](N)C(=O)O; Piperidide = C1CCN(*)CC1; Ac5c = NC1(C(=O)O)CCCC1; Aze = O=C(O)[C@@H]1CCN1; Sar = CNCC(=O)O

What was measured:
mutant KRAS (G12D) = mutant KRAS (G12D) (Homo sapiens, UniProt P01116, G12D); assay: Surface plasmon resonance (SPR) binding to mutant KRAS (G12D); conditions: SPR Biacore 8K+, Single Cycle Kinetics, 30° C., 10 μM GDP, 1:1 binding model; read-out: Dissociation Constant KD (nM) for Mutant KRAS (G12D)
wild type KRAS(WT) = wild type KRAS(WT) (Homo sapiens, UniProt P01116); assay: Surface plasmon resonance (SPR) binding to wild type KRAS; conditions: SPR Biacore 8K+, Single Cycle Kinetics, 30° C., 10 μM GDP, 1:1 binding model; read-out: Dissociation Constant KD (nM) for Wild Type KRAS

SMILES	Kd (mutant KRAS (G12D))	Kd (wild type KRAS(WT))
CC(C)=CC[C@@H]1NC(=O)[C@H](Cc2cccc(I)c2)NC(=O)CN(C)C(=O)[C@H](CC2CCC(F)(F)CC2)N(C)C(=O)[C@@H]2CCN2C(=O)[C@@H]2CCCCN2C(=O)[C@H](C2CCC2)NC(=O)[C@H](CC(C)C)N(C)C(=O)C[C@@H](C(=O)N2CCCCC2)N(C)C(=O)[C@H](CC(C)C)NC(=O)[C@H](Cc2ccccc2)N(C)C1=O [Compound 2, (1S,6S,9S,15S,18S,21S,24S,27S,31S,34S)-21-benzyl-34-cyclobutyl-9-[(4,4-difluorocyclohexyl)methyl]-15-[(3-iodophenyl)methyl]-24,31-diisobutyl-8,11,20,26,30-pentamethyl-18-(3-methylbut-2-enyl)-27-(piperidine-1-carbonyl)-3,8,11,14,17,20,23,26,30,33,36-undecazatricyclo[34.4.0.03,6]tetracontane-2,7,10,13,16,19,22,25,29,32,35-undecanone] ([NMeL][Gly(cBu)][Pip][Aze][X1][Sar][Phe(3-I)][X2][NMeF]L[NMeD]-Piperidide; lactam N-11)	4.4 nM	44 nM
CCCC[C@@H]1NC(=O)[C@H](Cc2cccc(I)c2)NC(=O)CN(C)C(=O)[C@H](Cc2ccc(C)cc2)N(C)C(=O)CN(C)C(=O)CN(C)C(=O)[C@H]([C@@H](C)CC)NC(=O)[C@H](CCOC)N(C)C(=O)C[C@@H](C(=O)N2CCCCC2)N(C)C(=O)[C@H](CC(C)C)NC(=O)[C@H](COC)N(C)C1=O [Compound 3, (3S,6S,9S,12S,18S,27S,30S,34S)-9-butyl-12-[(3-iodophenyl)methyl]-3-isobutyl-30-(2-methoxyethyl)-6-(methoxymethyl)-1,7,16,19,22,25,31-heptamethyl-27-[(1S)-1-methylpropyl]-34-(piperidine-1-carbonyl)-18-(p-tolylmethyl)-1,4,7,10,13,16,19,22,25,28,31-undecazacyclotetratriacontane-2,5,8,11,14,17,20,23,26,29,32-undecanone] ([NMehSer](Me)I[Sar][Sar][NMePhe(4-Me)][Sar][Phe(3-I)][Nle][NMeS](Me)L[NMeD]-Piperidide; lactam N-11)	2.9 nM	43 nM
C#Cc1cccc(C[C@@H]2NC(=O)CN(C)C(=O)[C@H](CC3CCCCC3)N(C)C(=O)CN(C)C(=O)CN(C)C(=O)[C@H]([C@@H](C)CC)NC(=O)[C@H](C)CN(C)C(=O)C[C@@H](C(=O)N3CCCCC3)N(C)C(=O)[C@H](CC(C)C)NC(=O)C(C)(C)N(C)C(=O)[C@H](Cc3ccc(OC)cc3)NC2=O)c1 [Compound 4, (3S,9S,12S,18S,27S,30R,35S)-18-(cyclohexylmethyl)-12-[(3-ethynylphenyl)methyl]-3-isobutyl-9-[(4-methoxyphenyl)methyl]-1,6,6,7,16,19,22,25,30,32-decamethyl-27-[(1S)-1-methylpropyl]-35-(piperidine-1-carbonyl)-1,4,7,10,13,16,19,22,25,28,32-undecazacyclopentatriacontane-2,5,8,11,14,17,20,23,26,29,33-undecaone] ([X3]I[Sar][Sar][NMeCha][Sar][X4]Y(Me)[NMeAib]L[NMeD]-Piperidide; lactam N-11)	1.5 nM	23 nM
CCCC[C@@H]1NC(=O)[C@H](Cc2cccc(F)c2F)NC(=O)CN(C)C(=O)[C@H](Cc2ccc(OC)cc2)N(C)C(=O)[C@@H]2CCN2C(=O)[C@@H]2CCCCN2C(=O)[C@H](C2CCC2)NC(=O)[C@H](CC(C)C)N(C)C(=O)C[C@@H](C(=O)N2CCCCC2)N(C)C(=O)[C@H](CC(C)C)NC(=O)C(C)(C)N(C)C1=O [Compound 5, (1S,6S,9S,15S,18S,24S,27S,31S,34S)-18-butyl-34-cyclobutyl-15-[(2,3-difluorophenyl)methyl]-24,31-diisobutyl-9-[(4-methoxyphenyl)methyl]-8,11,20,21,21,26,30-heptamethyl-27-(piperidine-1-carbonyl)-3,8,11,14,17,20,23,26,30,33,36-undecazatricyclo[34.4.0.03,6]tetracontane-2,7,10,13,16,19,22,25,29,32,35-undecaone] ([NMeL][Gly(cBu)][Pip][Aze][NMeY](Me)[Sar][X5][Nle][NMeAib]L[NMeD]-Piperidide; lactam N-11)	3.6 nM	19 nM
CC[C@H](C)[C@@H]1NC(=O)[C@H](CC(C)C)N(C)C(=O)C[C@@H](C)NC(=O)[C@H](C(C)C)N(C)C(=O)C2(CCCC2)NC(=O)[C@@H]2CCCN2C(=O)[C@H](CCc2ccc(C(F)(F)F)c(Cl)c2)NC(=O)CN(C)C(=O)[C@H](CC2CCCCC2)N(C)C(=O)[C@@H]2CCN2C(=O)[C@H](C)N(C)C1=O [Compound 6, (3S,9S,12S,17S,20S,23S,27R,30S,36S)-3-[2-[3-chloro-4-(trifluoromethyl)phenyl]ethyl]-9-(cyclohexylmethyl)-23-isobutyl-30-isopropyl-7,10,17,18,24,27,31-heptamethyl-20-[(1S)-1-methylpropyl]spiro[1,4,7,10,15,18,21,24,28,31,34-undecazatricyclo[34.3.0.012,15]nonatriacontane-33,1′-cyclopentane]-2,5,8,11,16,19,22,25,29,32,35-undecaone] (cyclo([Ac5c][NMeV][d(β3hA)][NMeL]I[NMeA][Aze][NMeCha][Sar][hPhe(3-Cl-4-CF3)]P))	21 nM	16 nM
CC[C@H](C)[C@@H]1NC(=O)[C@H](CC(C)C)N(C)C(=O)C[C@@H](C(=O)N2CCCCC2)N(C)C(=O)[C@H](C2CCCCC2)N(C)C(=O)C2(CCCC2)NC(=O)CN(CCN2CCNCC2)C(=O)[C@H](CCc2ccc(C(F)(F)F)c(Cl)c2)NC(=O)CN(C)C(=O)[C@H](CC2CCCCC2)N(C)C(=O)CN(C)C(=O)CN(C)C1=O [Compound 7, (11S,17S,26S,29S,33S,36S)-11-[2-[3-chloro-4-(trifluoromethyl)phenyl]ethyl]-36-cyclohexyl-17-(cyclohexylmethyl)-29-isobutyl-15,18,21,24,30,34,37-heptamethyl-26-[(1 S)-1-methylpropyl]-9-(2-piperazine-1-ylethyl)-33-(piperidine-1-carbonyl)-6,9,12,15,18,21,24,27,30,34,37-undecazaspiro[4.33]octatriacontane-7,10,13,16,19,22,25,28,31,35,38-undecaone, reference compound] ([NMeL]I[Sar][Sar][NMeCha][Sar][hPhe(3-Cl-4-CF3)][X6][Ac5c][NMeChg][NMeD]-Piperidide; lactam N-11)	0.18 nM	0.94 nM
